Results taken from patent publication US20220233523A1, “ANTIBIOTIC POTENTIATION FOR NONTUBERCULOUS MYCOBACTERIAL DISEASE” (priority 2019, published 2022).
Marks after values point to notes of the source that are not given here.

What was measured:
Format in all cases: cell-based, Mycobacterium avium subsp hominissuis 104 (MAH104)
[1] = test system: intracellular MAH 104 in THP-1 macrophages; assay: Treatment of MAH inside human THP-1 macrophages with antibiotics and metabolites (CFU); settings: for CFU/ml of macrophage lysate, 2 h: 2 h (baseline); for CFU/ml of macrophage lysate, 4 days: clarithromycin 16 μg/ml, amikacin 4 μg/ml, none 8.2 +/− 0.3 × 10^5
Procedure: Human THP-1 cell line (TIB-202) (American Type Culture Collection, Manassas, Va.) was cultivated in RPMI-1640 medium with 10% of heat-inactivated fetal bovine serum (FBS, GEMINI B10-PRODUCTS, Sacramento, Calif.), at 37° C. with 5% CO2. The THP-1 cells were maintained in 75 cm^2 tissue culture flasks. The differentiation of THP-1 monocytes into macrophages with PMA (phorbol 12-myristate 13-acetate) (SIGMA ALDRICH) and intracellular antibiotic killing assays were performed as previously described (Rojony et al., Clinical proteomics 2019; 16:39). […] As a negative control, differentiated THP-1 cells were incubated without any antibiotics and with no metabolites. THP-1 cells were replenished with new media containing antibiotics, or no antibiotic, every other day. Cells were lysed at 2 h (baseline) and day 4 and subsequently the number of viable bacteria was determined by CFU counting on 7H10 agar plates.

[2] = test system: MAH (strain 104) in established biofilms; assay: Treatment of established MAH biofilms with antibiotics and metabolites (CFU); settings: for killing capacity of clarithromycin: established M. avium 104 biofilms, 72 hours, FIG. 4A-D; for CFU/ml at 14 days: established biofilms, clarithromycin 16 μg/ml, amikacin 4 μg/ml, 0.05% propionic or butyric acid, 0.2% glycerol, none 4.2 +/− 0.5 × 10^8
Procedure: To assess the antibiotic tolerance of MAH biofilms to amikacin (4 μg/ml) and clarithromycin (16 μg/ml), biofilms were formed for 14 days as described herein. […] As a negative control, biofilms were incubated only with non-supplemented 7H9 without any antibiotics. […] Subsequently, 100 μl of 0.02% of Triton X-100 (final concentration 0.01%) was added to the established biofilms to mix, dilute and perform CFU analysis with the entire population of biofilms (attached and unattached).
Mycobacteria biofilms were first established and then treated or not treated with antibiotics. In parallel, biofilms were also co-treated with antibiotics and the targeted metabolites.

[3] = test system: planktonic cultures of MAH104; assay: Growth of planktonic cultures in non-supplemented 7H9 with metabolites; settings: propionic acid and butyric acid at 0.05%, glycerol 0.2%; 12 days at 37° C.
Procedure: MAH104 from 7H10 agar was used to make bacterial suspension in deionized water (10^9 CFU/ml) and then the suspension was centrifuged three times to wash the bacteria cells (3500 rpm for 20 minutes at 20° C.). After washing step, the bacterial suspensions were resuspended in 7H9 medium and suspensions were left alone to allow clumped bacteria to settle. The top half of the suspension was transferred to new tube and adjusted to 1×10^8 CFU/ml, using visual turbidity and optical density. […] These cultures were incubated at 37° C. for 12 days and the O.D.595 nm was measured at each 72 hours.
We determined the optimal concentration for the growth of MAH104 in non-supplemented 7H9 media since the amounts of these metabolites available in Biolog plates are unknown. […] The experiments were made in non-supplemented 7H9 medium (without any carbon sources: no OADC, no glycerol, and no tween 20 or 80) (FIG. 2A-C), which is the condition applied in the biofilms assay.

[4] = test system: pre-established MAH104 biofilms; assay: Effect of metabolites on pre-established biofilms; settings: for O.D.570 nm of pre-established biofilms (biofilm formation): 7 days at 37° C. with metabolite, 7H9 0.332±0.073
Procedure: (§1) Assays with biofilms incubated with propionic acid, butyric acid, and glycerol were performed to test whether these metabolites affect the formation of biofilms. All the experiments were made in non-supplemented 7H9. The effect of these metabolites was evaluated during biofilm formation, in pre-established biofilms and in M. avium cells pre-attached to polystyrene. To evaluate the effect of targeted metabolites during biofilm formation, mycobacteria suspensions were prepared and inoculated in 96 wells polystyrene plates, as already described, and biofilms were formed in the presence or not of the short-chain fatty acids at different concentrations (1%, 0.5%, 0.1%, 0.05% and 0.01%). For glycerol, only 0.2% was used. The biofilms were formed in 7H9 media at 37° C. for 7 days. For pre-established biofilms, MAH104 was again inoculated in 96 wells plates and biofilms were formed as described herein. […] It was also evaluated whether these metabolites could promote the growth of MAH104 cells present in biofilms through the measurement of […] every 24 hours. Finally, mycobacteria suspension with low density made in 7H9 broth (containing 1×10^6 bacteria/ml) were seeded in 96 wells polystyrene plates and incubated for 7 days at 37° C. […] The growth of pre-attached bacterial cells was followed every 24 hours through O.D.595 nm. The biofilm formation was evaluated by crystal violet.
Next, the effect of short-chain fatty acids and glycerol in pre-established biofilms was tested. In parallel, the O.D.595 nm of pre-established biofilm cultures were also measured for 7 days in order to check whether the bacterial cells in biofilm multiplied in the presence of the targeted substrates. […] In addition, we observed a significant increase in the biofilm formation (O.D.570 nm values) when mycobacteria biofilm was incubated with glycerol (7H9, O.D.570 nm=0.332±0.073; glycerol, O.D.570 nm=1.562±0.1751; P=0.0029).

sessile MAH104 cells = assay: Growth and biofilm formation of pre-attached (sessile) cells in nutrient-limited media; settings: for O.D.570 nm of sessile MAH104 (crystal violet, biofilm formation): 0.05% fatty acids in non-supplemented 7H9, 7 days, blank 0.091±0.007; for growth of sessile forms: 0.2% glycerol or 0.05% fatty acids in non-supplemented 7H9, 7 days at 37° C., O.D.595 nm
Procedure: as §1
Low mycobacterial cells density (10^6/ml) resuspended in non-supplemented 7H9 media were inoculated in 96-well plates and incubated for 7 days at 37° C. to allow the bacteria to attach into polystyrene. The supernatant was discarded to remove planktonic cells and pre-attached bacterium was incubated for 7 days in nutrient-limited media (non-supplemented 7H9). […] The growth of sessile mycobacteria was followed by O.D.595 nm measurement and biofilm formation was determined through crystal violet (O.D.570 nm), since the multiplication of bacteria cells is linked with the formation of biofilms. No growth was observed when sessile MAH104 cells were cultivated in non-supplemented 7H9 broth. […] It is also important to highlight that the O.D.570 nm value for sessile MAH104 forms incubated with non-supplemented 7H9 (O.D.570 nm=0.11±0.039) had no significant difference in comparison with the blank (O.D.570 nm=0.091±0.007) (P=0.37), showing no biofilm formation. […] FIG. 3A-D.

Row | Compound | CFU/ml of macrophage lysate, 2 h [1] | CFU/ml of macrophage lysate, 4 days [1] | bacterial killing by clarithromycin and amikacin in macrophages after co-treatment ([1]; THP1 macrophages) | killing capacity of clarithromycin [2] | CFU/ml at 14 days [2] | growth of planktonic MAH104 in non-supplemented 7H9 [3] | O.D.570 nm of pre-established biofilms (biofilm formation) [4] | O.D.570 nm of sessile MAH104 (crystal violet, biofilm formation) (sessile MAH104 cells) | growth of sessile forms (sessile MAH104 cells) | O.D.595 nm of pre-established biofilm cultures ([4]; after 24 hours of culture, 7H9 media 0.452±0.049)
1 | CCC(=O)O [Propionic acid] | 2.0 +/− 0.4 × 10^5 CFU/ml | 8.0 +/− 0.2 × 10^5 CFU/ml | increased significantly | increase | 5.5 +/− 0.4 × 10^6*(1) CFU/ml | able to grow | 0.3855±0.048 | 0.25±0.01 | supported the growth of sessile forms | 
2 | OCC(O)CO [Glycerol] | 3.1 +/− 0.4 × 10^5 CFU/ml | 2.0 +/− 0.5 × 10^5* (1) CFU/ml |  | increase | 1.1 +/− 0.3 × 10^9* CFU/ml | able to support MAH104 growth | 1.562±0.1751 |  | supported the growth of sessile forms | 0.609±0.069
3 | CCCC(=O)O [Butyric acid] | 2.0 +/− 0.4 × 10^5 CFU/ml | 8.4 +/− 0.5 × 10^5 CFU/ml |  | increase | 3.4 +/− 0.6 × 10^6* (1) CFU/ml | able to grow | 0.490±0.121 | 0.32±0.02 | supported the growth of sessile forms | 
